From patent US12297203B2, “Pyrrolopyrimidine ITK inhibitors” (ACLARIS THERAPEUTICS, INC., priority 2018, dated 2025)
Where two headings read alike, the source gives them in different places.

What was measured:
ITK = ITK (Homo sapiens (Human), UniProt Q08881); test: ITK inhibitor binding potency (LanthaScreen competitive binding assay); conditions: read-out: ITK Inh. IC50
Source text: The ability of candidate compounds to interact with ITK is quantitated by a competitive binding assay using the LanthaScreen technology developed by Life Technologies. This assay is based on the binding of a proprietary, Alexa Fluor® 647-labeled, ATP-competitive kinase inhibitor (kinase tracer-236) to the ITK expression construct in the presence of a Europium-conjugated antibody, resulting in a FRET (fluorescence resonance energy transfer) signal. Displacement of the kinase tracer by compound results in a lower emission ratio upon excitation of the Europium chelate. Candidate compounds are designed as potential irreversible inhibitors of ITK, capable of ligating to an active site cysteine residue resulting in time dependent covalent binding. The time dependent nature of irreversible inhibition is investigated by performing the binding assay with and without a pre-incubation of compound and ITK. […] The inhibitory potency of candidate compounds is measured in 20 mM HEPES pH 7.5, 10 mM MgCl2, 0.01% BSA, 0.0005% Tween-20, and 2% DMSO in the presence of 10 nM ITK, 2 nM Eu-anti-GST antibody, and 50 nM kinase tracer-236 using a 384-well plate format. Background signal is defined in the absence of ITK and uninhibited signal is defined in the presence of vehicle (2% DMSO) alone. Compounds were evaluated in an 11 point dose-response ranging from 20 uM to 0.34 nM. The binding assays are performed under two preincubation conditions to evaluate time dependence of inhibition. For the pre-incubation assay, ITK and Eu-anti-GST antibody are pre-incubated with compound or vehicle for two hours prior to the addition of kinase tracer. The non-preincubated assay is run under conditions where ITK and Eu-anti-GST antibody are added to a mixture of compound and kinase tracer. IC50 values of compounds are determined using a 4 parameter logistical fit of emission ratio as a function of the concentration of compound.

[1] = test system: JAK1/3 phosphorylation of its substrate, STAT5, at Y694; test: JAK1/3 target modulation assay (IL-2 stimulated STAT5 Y694 phosphorylation in PBMC); type: cell-based; conditions: Primary human peripheral blood mononuclear cells, IL-2 25 ng/mL, read-out: IL2-STAT5 Inh. IC50
Protocol: Target modulation was based upon the ability of a compound to inhibit JAK1/3 phosphorylation of its substrate, STAT5, at Y694. Primary human peripheral blood mononuclear cells were plated in V-bottom 96 well plates at 200,000 cells/well in 120 μL medium (RPMI-1640 with 10% fetal bovine serum, 10 mM HEPES buffer, 12.2 mM 2-mercaptoethanol, and supplemented with glutamine/penicillin/streptomycin). Compounds were added as 15 μL of 10× working stock solutions in medium with 1% DMSO (or medium with 1% DMSO for controls) and placed in a 37° C. incubator with gentle shaking for 1 hour. Stimulation was carried out using recombinant human IL-2 (R&D Systems #202-IL-050) to activate JAK1/3. IL-2 stock solution was diluted in media to 250 ng/mL and was added rapidly to all compound containing and stimulation only wells at 15 μL/well (final concentration=25 ng/mL). Wells designated ‘unstimulated’ received 15 μL of media only. The plate was placed back in a 37° C. incubator with gentle shaking for 5 minutes. After stimulation, the plates were immediately sealed with a plate seal, and cells pelleted at 400× g for 5 minutes. Media was removed using a multichannel aspirator, and 75 μL of cold Tris lysis buffer (MSD #R60TX-3) plus 1× Protease Inhibitor Solution (MSD #R70AA-1), 1× Phosphatase Inhibitor I (MSD #R70AA-1), and 1× Phosphatase Inhibitor II (MSD #R70AA-1) was added per well. Cells were incubated at 4° C. with gentle shaking for at least 30 minutes to allow for complete lysis. The plates were removed from 4° C., and 25 μL of lysate from each well was added to the corresponding well on the MSD plate. Samples were analyzed by either an MSD multiplex kit for Phospho-STAT5a,b/Total-STAT5a,b (MSD #K15163D) or an MSD single-plex kit for Phospho-STAT5a,b (MSD #K150IGD). The protocols for the respective kits were followed, and the plates were read on the MSD SECTOR S 600.

[2] = test system: ITK phosphorylation of its substrate, PLCγ1, at Y783; test: ITK target modulation assay (PLCγ1 Y783 phosphorylation, anti-CD3 stimulated Jurkat T cells); type: cell-based; conditions: anti-CD3 Dynabeads stimulation, read-out: PLC-γ Inh. IC50
Protocol: Target modulation was based upon the ability of a compound to inhibit ITK phosphorylation of its substrate, PLCγ1, at Y783. Human Jurkat T cells (ATCC TIB-152) were plated in V-bottom 96 well plates at 400,000 cells/well in 80 μL medium (RPMI1640 with 10% heat inactivated serum and 55 μM 2-mercaptoethanol and supplemented with glutamine/penicillin/streptomycin). Compounds were added as 10 μL of 10× working stock solutions in medium with 1% DMSO (or medium with 1% DMSO for controls) and placed in a 37° C. incubator with gentle shaking for 1 hour. Stimulation was carried out using anti-CD3 Dynabeads (Invitrogen catalog #1151D) to activate the T cell receptor and mimic antigen presenting cells. Beads were washed and resuspended in medium at 1.84×10^8 beads/ml. Beads were added rapidly to all compound containing and stimulation only wells at 10 μL/well (bead:cell=2:1) with gentle mixing of the bead source between each addition. Wells designated ‘unstimulated’ received 10 μL of media only. The plate was immediately sealed with a plate seal and cells pelleted at 400× g for 4 minutes. Media was removed using a multichannel aspirator, 25 μL of cold hypotonic lysis buffer (VWR M334-100 ml) plus 1×HALT Protease Inhibitor Cocktail (ThermoFisher #78437), 1× Phosphatase Inhibitor Cocktail 2 (Sigma Aldrich #P5726), 1× Phosphatase Inhibitor Cocktail 3 (Sigma Aldrich #P0044) and 2 mM PMSF was added per well. Cells were incubated on ice for 30 minutes to swell the cells then lysed by pipetting 20 times using a multichannel pipet. The plates were then resealed and centrifuged for 5 minutes at 400× g to pellet the cellular debris. Two μL of the soluble component of each sample was spotted onto nitrocellulose and allowed to dry for 30 minutes. Nitrocellulose was wet in 1× Tris Buffer Saline (20 mM Tris pH7.5, 150 mM NaCl) then blocked in LiCOR Odyssey Blocking Buffer (TBS) (LiCOR #927-50000) for 1 hour at room temperature with rocking. Following blocking, nitrocellulose was incubated in LiCOR Odyssey Blocking Buffer (TBS) plus 0.2% Tween20 plus anti-phospho-PLCγ1 (Y783) antibody (CST #2821S) at 1:1000 and anti-PLCγ1 (Abcam #41433) at 1:5000 with gentle rocking overnight at 4° C. Nitrocellulose was then washed four times for 5 minutes each with TBS plus 0.1% Tween20 (TBST) then incubated in LiCOR Odyssey Blocking Buffer (TBS) plus 0.2% Tween20 plus secondary antibodies IRDye 800CW (LiCOR 926-32211) and IRDye 680RD (LiCOR 926-68070) both at 1:15,000 with gentle rocking at room temperature in the dark for 1 hour. Nitrocellulose was then washed four times for 5 minutes each with TBST at room temperature in the dark. A final rinse with TBS was done prior to imaging and quantifying using the LiCOR Odyssey Imager and software respectively.

JAK3 = JAK3 (Homo sapiens (Human), UniProt P52333); test: JAK3 enzyme activity assay (Caliper mobility shift); type: biochemical; conditions: ATP at Km level; read-out: JAK3 Inh. IC50
Source text: The ability of candidate compounds to interact with JAK3 is quantitated by a mobility shift assay using an LC3000 instrument developed by Caliper Life Sciences. This assay is based on mobility shift electrophoresis, in which fluorescently labelled product and fluorescently labelled substrate peaks are separated and detected independently. JAK3 product/substrate separation is obtained using the following instrument settings: Pressure=−1.4 psi, Downstream voltage=−2550V and Upstream voltage=−800V. The inhibitory potency of candidate compounds of JAK3 is measured in 20 mM HEPES pH 7.5, 10 mM MgCl2, 0.01% BSA, 0.0005% Tween-20, and 2% DMSO in the presence of 2.5 nM JAK3 (Life Technologies Catalog #PV3855), […] (Anaspec Catalog #AS-64106) and […] (Km level) using a 384-well plate format. Background signal is defined in the absence of enzyme and uninhibited signal is defined in the presence of vehicle (2% DMSO) alone. Compounds were evaluated in an 11 point dose-response ranging from […] to 0.34 nM. IC50 values of compounds are determined using a 4 parameter logistical fit of emission ratio as a function of the concentration of compound.

ITK, sequence (Q08881 whole entry): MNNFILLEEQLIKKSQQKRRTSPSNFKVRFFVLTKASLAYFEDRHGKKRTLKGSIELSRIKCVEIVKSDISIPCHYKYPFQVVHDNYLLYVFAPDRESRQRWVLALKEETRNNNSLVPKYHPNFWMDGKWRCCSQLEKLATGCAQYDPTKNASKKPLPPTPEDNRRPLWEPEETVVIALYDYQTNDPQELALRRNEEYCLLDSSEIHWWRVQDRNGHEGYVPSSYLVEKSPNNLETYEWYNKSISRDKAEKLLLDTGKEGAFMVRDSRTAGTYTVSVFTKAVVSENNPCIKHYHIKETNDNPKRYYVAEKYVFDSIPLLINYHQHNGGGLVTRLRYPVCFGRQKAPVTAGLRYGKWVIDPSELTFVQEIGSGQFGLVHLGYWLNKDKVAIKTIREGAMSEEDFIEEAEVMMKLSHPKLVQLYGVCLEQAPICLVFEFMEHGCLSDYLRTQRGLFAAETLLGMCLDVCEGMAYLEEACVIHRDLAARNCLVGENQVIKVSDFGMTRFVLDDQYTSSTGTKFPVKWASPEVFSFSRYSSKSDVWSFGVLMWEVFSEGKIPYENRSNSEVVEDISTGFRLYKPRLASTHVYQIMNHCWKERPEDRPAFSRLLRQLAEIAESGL
JAK3, sequence (P52333 781-1124): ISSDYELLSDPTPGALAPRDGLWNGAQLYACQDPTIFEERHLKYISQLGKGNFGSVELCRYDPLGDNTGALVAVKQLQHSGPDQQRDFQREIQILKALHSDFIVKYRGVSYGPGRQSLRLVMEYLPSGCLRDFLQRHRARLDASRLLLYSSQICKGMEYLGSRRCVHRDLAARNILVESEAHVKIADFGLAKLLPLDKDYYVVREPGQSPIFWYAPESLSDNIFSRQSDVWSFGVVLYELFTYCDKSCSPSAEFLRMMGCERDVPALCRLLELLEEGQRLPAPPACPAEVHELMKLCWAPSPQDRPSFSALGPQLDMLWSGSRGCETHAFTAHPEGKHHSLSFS

Compound | IC50 (ITK) [µM] | IC50 ([1]; Homo sapiens, PBMC) [µM] | IC50 ([2]; Homo sapiens, Jurkat) [µM] | IC50 (JAK3) [µM] | IC50 [1] [µM] | IC50 ([2]; Human Jurkat T cells) [µM]
C=CC(=O)N1C[C@H](Nc2ncnc3[nH]cc(CC4CC4)c23)CC[C@@H]1CC (single isomer, unassigned) [Example 40] | > 0.1 | > 1 | > 1 | > 0.1 |  | 
C=CC(=O)N1C[C@@H](Nc2ncnc3[nH]cc(CC4CC4)c23)CC[C@H]1C(C)C (single isomer, unassigned) [Example 42] | ≤ 0.01 | 0.1 to 1 | 0.1 to 1 | ≤ 0.01 |  | 
C=CC(=O)N1C[C@H](Nc2ncnc3[nH]cc(CC4CC4)c23)CC[C@@H]1C(C)C (single isomer, unassigned) [Example 43] | > 0.1 | > 1 | > 1 | > 0.1 |  | 
C=CC(=O)N1C[C@H](Nc2ncnc3[nH]cc([C@@H]4C[C@H]4COC)c23)CC[C@@H]1C (single isomer, unassigned) [Example 45] | ≤ 0.01 | ≤ 0.1 | ≤ 0.1 | ≤ 0.01 |  | 
C=CC(=O)N1C[C@H](Nc2ncnc3[nH]cc([C@H]4C[C@@H]4COC)c23)CC[C@@H]1C (single isomer, unassigned) [Example 46] | ≤ 0.01 | 0.1 to 1 | 0.1 to 1 | ≤ 0.01 |  | 
C=CC(=O)N1C[C@H](Nc2ncnc3[nH]cc([C@@H]4CC4(F)F)c23)CC[C@@H]1C (single isomer, unassigned) [Example 48] | ≤ 0.01 | ≤ 0.1 | ≤ 0.1 | ≤ 0.01 |  | 
C=CC(=O)N1C[C@H](Nc2ncnc3[nH]cc([C@H]4CC4(F)F)c23)CC[C@@H]1C (single isomer, unassigned) [Example 49] | ≤ 0.01 | 0.1 to 1 | 0.1 to 1 | ≤ 0.01 |  | 
C=CC(=O)N1C[C@H](Nc2ncnc3[nH]cc([C@H]4[C@H](C)C4(F)F)c23)CC[C@@H]1C (single isomer, unassigned) [Example 51] | ≤ 0.01 | ≤ 0.1 | ≤ 0.1 | ≤ 0.01 |  | 
C=CC(=O)N1C[C@H](Nc2ncnc3[nH]cc([C@@H]4[C@@H](C)C4(F)F)c23)CC[C@@H]1C (single isomer, unassigned) [Example 52] | ≤ 0.01 | 0.1 to 1 | 0.1 to 1 | ≤ 0.01 |  | 
C=CC(=O)N1C[C@H](Nc2ncnc3[nH]cc([C@@H]4C(C)(C)C4(F)F)c23)CC[C@@H]1C (single isomer, unassigned) [Example 54] | ≤ 0.01 | 0.1 to 1 | 0.1 to 1 | ≤ 0.01 |  | 
C=CC(=O)N1C[C@H](Nc2ncnc3[nH]cc([C@H]4[C@@H](C)C4(F)F)c23)CC[C@@H]1C (single isomer, unassigned) [Example 55] | ≤ 0.01 | ≤ 0.1 | 0.1 to 1 | ≤ 0.01 |  | 
C=CC(=O)N1C[C@H](Nc2ncnc3[nH]cc([C@H]4[C@H](C)C4(F)F)c23)CC[C@@H]1C (single isomer, unassigned) [Example 56] | ≤ 0.01 |  |  | ≤ 0.01 | 0.1 to 1 | 0.1 to 1
C/C=C/C(=O)N1C[C@H](Nc2ncnc3[nH]cc([C@H]4CC4(F)F)c23)CC[C@@H]1C (single isomer, unassigned) [Example 57] | > 0.1 | > 1 | > 1 | > 0.1 |  | 
C/C=C/C(=O)N1C[C@H](Nc2ncnc3[nH]cc([C@@H]4CC4(F)F)c23)CC[C@@H]1C (single isomer, unassigned) [Example 58] | > 0.1 | > 1 | 0.1 to 1 | > 0.1 |  | 
C[C@H]1CC[C@@H](Nc2ncnc3[nH]cc([C@H]4CC4(F)F)c23)CN1C(=O)/C=C/CN(C)C (single isomer, unassigned) [Example 60] | ≤ 0.01 | 0.1 to 1 | ≤ 0.1 | ≤ 0.01 |  | 
C[C@H]1CC[C@@H](Nc2ncnc3[nH]cc([C@@H]4CC4(F)F)c23)CN1C(=O)/C=C/CN(C)C (single isomer, unassigned) [Example 61] | ≤ 0.01 | > 1 | 0.1 to 1 | 0.01 to 0.1 |  | 
C=C(C)C(=O)N1C[C@H](Nc2ncnc3[nH]cc([C@H]4CC4(F)F)c23)CC[C@@H]1C (single isomer, unassigned) [Example 62] | > 0.1 | > 1 | 0.1 to 1 | > 0.1 |  | 
